Earlier results as cited in patent US20110274751A1 (Sanovel Ilac Sanayi Ve Ticaret Anonim Sirketi, priority 2010, published 2011).
Where a name gives a salt, the structure may show the parent alone.

What was measured:
[1] = in vivo

SMILES | solubility in water (water) | half-life [1] | solubility
COc1ccc(CN2CCNCC2)c(OC)c1OC [Trimetazidine dihydrochloride] | highly-soluble | – | –
COc1ccc(CN2CCNCC2)c(OC)c1OC [Trimetazidine, 1-(2,3,4-trimethoxybenzyl)piperazine] | – | 6 h | considerably high solubility
